Laboratory results taken from patent publication US9499511B2, “N-substituted hydroxylamine derivatives with carbon-based leaving groups” (The Johns Hopkins University, priority 2011, dated 2016).
Like-named read-outs stand apart in the source and are kept apart here.

Legend:
[1] = Decomposition kinetics monitored by UV-Vis spectroscopy; type: physicochemical; conditions: PBS, pH 7.4, Condition A: pH 7.4, 37° C., 0.1M PBS, 100 μL DTPA, air (UV/Vis)
[2] = pKa of carbanion byproduct (concentration of b / b-H+ as a function of pH, UV-Vis); type: physicochemical
Text: FIG. 2A and FIG. 2B show a graph plotting the concentration of 4b, 4b-H^+ (FIG. 2A) and 6b, 6b-H^+ (FIG. 2B) as a function of pH. In FIG. 2A, the squares represent 4b-H^+ (λmax=298 nm), and the circles represent carbanion 4b (λmax=261 nm). In FIG. 2B, the squares represent 6b-H^+ (λmax=270 nm), where the last three data points were omitted due to spectral overlap, and the circles represent carbanion 6b (λmax=253 nm).
NMR spectra were obtained on a Bruker Avance 400 MHz FT-NMR spectrometer. All chemical shifts are reported in parts per million (ppm) relative to residual CHCl3 (7.26 ppm for ^1H, 77.23 ppm for ^13C), residual DMSO (2.50 ppm for ^1H, 39.52 for ^13C), or residual H2O (4.8 ppm for ^1H). High-resolution mass spectra were obtained on a VG Analytical VG70SE magnetic sector mass spectrometer operating in fast atom bombardment (FAB) mode. Ultraviolet-Visible (UV-Vis) absorption spectra were obtained using a Hewlett Packard 8453 diode array spectrometer. Phosphate-buffered saline (PBS) solutions (0.1 M) were prepared with 140 mM NaCl and 3 mM KCl, with 100 μM diethylenetriaminepentaacetic acid (DTPA), adjusted to pH 7.4. Buffered solutions (0.1 M) for UV-Vis experiments were prepared from HCl/NaCl (pH 1.7), AcOH/AcONa (pH 3.0, 3.5, 4.0, 4.5, 5.0, 5.5), or NaPO3H2/Na2PO3H (pH 6.0, 6.5, 7.0, 8.0, 9.0, 9.5, 9.8, 10.0, 10.5, 10.6).

[3] = test system: Sprague-Dawley rats; assay: Acute cardiovascular effects, pressure-volume (PV) loop analysis in anesthetized rats; type: in vivo, rat; conditions: IV infusion 100 μg/kg/min, 5 rats
Procedure: The acute cardiovascular effects of compounds 4a and 6a, when administered intravenously to Sprague-Dawley rats at an infusion rate of 100 μg/kg/min, were examined by means of pressure-volume (PV) curve (loops) analysis. PV families/relationships were generated via pre-load variation and hemodynamic indices were compared to baseline values. Each test article was administered to 5 rats.
Rats were intraperitoneally (IP) anesthetized to effect with pentobarbital (˜50 mg/kg), shaved and positioned in dorsal recumbence, endotracheally intubated and ventilated […], ˜2.5 mL tidal volume with 95% O2/5% CO2) with an adjustable small animal ventilator (Harvard Apparatus). Anesthesia was maintained with a continuous pentobarbital infusion (to effect, ˜3 to 5 mg/kg/h, IV) until completion of the experiment via an indwelling catheter placed in a femoral vein. Subsequently, transthoracic needle electrodes forming a single-lead ECG were placed. For LV mechano-energetic evaluation, the right carotid artery was isolated, dissected free from the surrounding tissue, and cannulated with a 2F high-fidelity conductance/micromanometer catheter (Millar Instruments). This catheter was advanced retrograde across the aortic valve and into the LV chamber in order to simultaneously determine left-ventricular pressure and volume (via conductivity). […] Meanwhile, in order to record arterial pressures, a 2F high-fidelity micromanometer catheter (Millar Instruments) was inserted into a femoral artery and advanced towards the abdominal aorta. Finally, an in-dwelling catheter was placed into the jugular vein for administration of test article.
Following collection of baseline hemodynamic data, infusion of test article was initiated at an infusion rate of 100 μg/kg/min; at 10 μL/min. Pressure-volume analyses were performed again approximately 30 min and 45 min after the initiation of the dose.
The resulting left-ventricular pressure and volume data was analyzed offline (IOX/ECG Auto; EMKA Technologies) in order to generate relationships representing the contractile and energetic state of the myocardium. Systolic (SAP), diastolic (DAP), and mean (MAP) arterial pressures were collected. Left-ventricular mechanical and/or geometrical indices were obtained from the pressure (ESP, EDP, dP/dt max/min, time-constant of relaxation—tau [based on mono-exponential decay with non-zero asymptote]) and volume (ESV, EDV, SV) signal. In addition, the following measurements were derived from left-ventricular pressure-volume data (PV loops) generated during brief periods of preload reduction: • Pressure volume area (PVA) and stroke work (SW). • End-systolic (ESPVR) and end-diastolic (EDPVR) pressure volume relationships. • End systolic pressure and stroke volume relationship (Arterial Elastance, Ea).
Data are presented as means with standard errors (mean±SEM) in Table 6.

[4] = Decomposition kinetics monitored by UV-Vis spectroscopy; type: physicochemical
Procedure: NMR spectra were obtained on a Bruker Avance 400 MHz FT-NMR spectrometer. […] High-resolution mass spectra were obtained on a VG Analytical VG70SE magnetic sector mass spectrometer operating in fast atom bombardment (FAB) mode. […] Phosphate-buffered saline (PBS) solutions (0.1 M) were prepared with 140 mM NaCl and 3 mM KCl, with 100 μM diethylenetriaminepentaacetic acid (DTPA), adjusted to pH 7.4.

[5] = N2O headspace analysis (GC) of HNO production, relative to Angeli's salt; type: physicochemical
Procedure: Nitrous oxide is produced via the dimerization and dehydration of HNO, and is the most common marker for HNO production (Fukuto, J. M. et al., Chem. Res. Toxicol. 2005, 18, 790-801).
Gas chromatography was performed on a Varian CP-3800 instrument equipped with a 1041 manual injector, electron capture detector, and a 25 m 5 Å molecular sieve capillary column. Grade 5.0 nitrogen was used as both the carrier (8 mL/min) and the make-up (22 mL/min) gas. The injector oven and the detector oven were kept at 200° C. and 300° C., respectively. All nitrous oxide analyses were performed with the column oven held constant at 150° C. All gas injections were made using a 100 μL gastight syringe with a sample-lock. Samples were prepared in 15 mL amber headspace vials with volumes pre-measured for sample uniformity (actual vial volume ranges from 15.19-15.20 mL). Vials were charged with 5 mL of PBS buffer containing DTPA, purged with argon, and sealed with a rubber septum. The vials were equilibrated for at least 10 minutes at 37° C. in a dry block heater. A 10 mM stock solution of Angeli's salt (AS) was prepared in 10 mM sodium hydroxide, and HNO donors 1a-4a, 6a (10 mM) were prepared in acetonitrile or methanol and used immediately after preparation. From these stock solutions, 50 μL was introduced into individual thermally-equilibrated headspace vials using a gastight syringe, yielding final substrate concentrations of 0.1 mM. Substrates were then incubated long enough to ensure complete decomposition and equilibration of N2O with the headspace. The headspace (60 μL) was then sampled and injected five successive times using a gastight syringe with a sample lock. This was repeated for n≧3 vials per donor. The nitrous oxide yield was averaged and reported relative to the standard, Angeli's salt. For chemical trapping of HNO, glutathione (100 μL of 10 mM in PBS) was added prior to HNO donor addition to give a final glutathione concentration of 0.2 mM, and headspace sampling for N2O was analogously performed as stated above.

**Q.** With `CO/N=C(\C)C1(NO)C(=O)N(C)N=C1C` (centres unmarked) [Compound 7a, 4-(N-hydroxylamine)-4-(acetyl-O-methoxyoxime)-N-methyl-5-methyl-pyrazolone] as the compound, how does the half-life [1] read?
**A.** Its half-life is 23 min.

**Q.** For “5-(acetyl-O-methoxyoxime)-N,N-dimethylbarbituric acid [Compound 4b]”, which pKa of byproduct [2] is on record?
**A.** The pKa of byproduct was “ca. 4.2”.

**Q.** Which results are given for `CO/N=C(\C)C1(NO)C(=O)N(c2ccccc2)N=C1C` (centres unmarked) [Compound 6a, 4-(N-hydroxylamine)-4-(acetyl-O-methoxyoxime)-N-phenyl-5-methyl-pyrazolone]?
**A.** Mean Blood Pressure ([3]; baseline 124 (4a) / 138 (6a)): 111 mmHg; Stroke Volume ([3]; mean, baseline 1 (4a) / 2.2 (6a)): 2.4 relative volume units; End Diastolic Pressure Volume Relationship ([3]; mean, baseline 1.7 (4a) / 1.8 (6a)): 1.5; End Diastolic Pressure ([3]; mean, baseline 4.7 (4a) / 4.4 (6a)): 3.6 mmHg; Tau ([3]; mean, baseline 8.5 (4a) / 8.7 (6a)): 8.6 ms; Arterial Elastance ([3]; mean, baseline 9.2 (4a) / 7.4 (6a)): 5.7; End Diastolic Volume ([3]; mean, baseline 14.6 (4a) / 19.2 (6a)): 20 relative volume units; End Systolic Pressure Volume Relationship ([3]; mean, baseline 28.1 (4a) / 23.7 (6a)): 31; Pre-Load Recruitable Stroke Work ([3]; mean, baseline 37.6 (4a) / 42.8 (6a)): 58.2; Diastolic Blood Pressure ([3]; mean, baseline 109 (4a) / 121 (6a)): 97 mmHg; Stroke Work ([3]; mean, baseline 112 (4a) / 227 (6a)): 185 relative volume units × mmHg; End Systolic Pressure ([3]; mean, baseline 134 (4a) / 141 (6a)): 113 mmHg; Systolic Blood Pressure ([3]; mean, baseline 147 (4a) / 160 (6a)): 130 mmHg; Pressure Volume Area ([3]; mean, baseline 343 (4a) / 590 (6a)): 318; Heart Rate ([3]; mean, baseline 365 (4a) / 340 (6a)): 332 bp, m; Left Ventricular +dP/dt ([3]; mean, baseline 6392 (4a) / 7689 (6a)): 6044 mmHg/s; Left Ventricular −dP/dt ([3]; mean, baseline −7585 (4a) / −8257 (6a)): −6549 mmHg/s; half-life [1]: 9.5 min; half-life ([4]; AcOH/AcONa buffer, pH 4, pH 4.0, room temperature, read-out: half-life (converted)): ~1500 min; half-life ([4]; PBS, pH 7.4, footnote c not given, pH 7.4, 37° C., read-out: t1/2): 9.5 min; half-life ([4]; PBS, pH 7.4, pH 7.4 and 37° C., read-out: half-life (converted)): ~10 min; pH near which the decomposition rate sharply increases ([4]; decomposition rate as a function of pH at 25° C., UV-Vis): ~10; HNO / N2O production (in words) ([5]; decomposition at pH 7.4): efficiently produces HNO; % HNO ([5]; donor 0.1 mM, 37° C., PBS pH 7.4, yield relative to Angeli's salt by N2O headspace analysis, SEM ±5%, n = 3): 110%
